Results published in paper PMC12469971 (Gels, 2025).
≈ marks a conversion by molar mass, not a printed value. Where “and” joins values, the source holds several entries; their conditions need not be identical. Identical values can stand only once. Like-named read-outs stand apart in the source and are kept apart here. Blank lines part the entries; values can stand above or below the compound they belong to.

Assays:
[1] = system: C6 tumor cell line; assay: Cell apoptosis by Annexin V-FITC/PI flow cytometry; type: cell-based, Rattus norvegicus; details: C6, 7.5 µg/mL, 24 h
Excerpt: (§1) The possible mechanism of action for the analyzed nanoparticles was established by determining the process of cellular apoptosis using flow cytometry, a method that enabled the assessment of the percentage of live, dead, pre-apoptotic, and apoptotic cells (Table S2 and Figure 8).
(§2) Apoptosis, also known as programmed cell death, is a natural process for eliminating cells. It involves the formation of membrane vesicles, chromatin condensation, and DNA fragmentation. Annexin V, which is a calcium-dependent protein, binds with high affinity to phosphatidylserine (PS), which moves from the inner to the outer membrane during apoptosis. When Annexin V is fluorescently labeled, this PS exposure can be detected using flow cytometry. The presence of PS signals macrophages to clear the cell through phagocytosis. […] In late apoptotic and necrotic cells, both the plasma and nuclear membrane integrity is compromised, enabling propidium iodide to penetrate the membrane, bind to nucleic acids, and produce red fluorescence. Cells were cultured in 24-well plates at a density of 50,000 cells per well to create a monolayer. After 24 h of incubation, test compounds (free drugs or nanoparticle formulations) were applied at a concentration of 7.5 µg/mL and incubated for an additional 24 h. Flow cytometry was used to process and analyze the cells according to the manufacturer’s instructions for the assay kit. For interpretation, cells that were negative for both propidium iodide (PI) and Annexin V were classified as viable; cells that were Annexin V-positive and PI-negative were considered apoptotic; and cells that were positive for both markers were identified as necrotic.

[2] = system: V79-4 normal cell line; assay: Cell apoptosis by Annexin V-FITC/PI flow cytometry; type: cell-based, Cricetulus griseus; details: V79-4, 7.5 µg/mL, 24 h
Excerpt: as §1, §2

[3] = PAMPA-BBB permeability assay (kit PMBBB-096); type: in vitro ADME; details: for Papp at 18 h, 500 μM: PAMPA, 37 °C
Experimental: The in vitro parallel artificial permeability assay (PAMPA, Kit PMBBB-096 from BioAssay Systems (Hayward, CA, USA)) was employed to evaluate whether nanoparticles can cross the BBB. […] As a negative standard, we used the low-permeability (LP) and high-permeability (HP) standards from the PAMPA-BBB kit from Bioassay.
Specifically, the PMBBB-096 (BioAssay Systems Hayward, CA, USA) kit supports in vitro assessment of BBB permeability. […] Three hundred microliters (300 μL) of 0.01 M PBS with 5% DMSO was added to the acceptor plate (96-well PTFE acceptor plates) (BioAssay Systems Hayward, CA, USA). The donor plate (96-well polycarbonate filter-based donor plates, pore size 0.45 μm) was coated with 5 μL of lyophilized brain lipid extract solution, made by dissolving the brain extract in 400 μL of dodecane. […] In parallel, 200 μM equilibrium standards were prepared in separate Eppendorf tubes for each test and control sample. In Eppendorf tubes, 80 μL of test solutions or the control standard at a concentration of 500 μM were mixed with 120 μL of PBS solution containing 5% DMSO. The blank was prepared using the PBS solution with 5% DMSO. The next day, equilibrium standards and the blank solution were utilized, and the acceptor compartment’s solution was analyzed. […] Based on the absorbance value determined for each respective test sample and the permeability control standard, the permeability rate (Pe) was calculated using the following Equation (4):(4) Pe=C×−ln1−ODA/ODE,cm/s where ODA represents the absorbance of the acceptor plate solution minus the absorbance of the blank, and ODE indicates the absorbance of the equilibrium standard minus the absorbance of the blank.

[4] = Cytotoxicity, MTT assay; details: Chinese hamster, V79-4 lung fibroblasts (ATCC CCL-93), 48 h; for viability at 48 h, 1.875 μg/mL: Cell viability (%) V79-4, 1.875 μg/mL (nanoparticles or free drug); for viability at 48 h, 3.75 μg/mL: Cell viability (%) V79-4, 3.75 μg/mL; for viability at 48 h, 7.5 μg/mL: Cell viability (%) V79-4, 7.5 μg/mL; for viability at 48 h, 15 μg/mL: Cell viability (%) V79-4, 15 μg/mL
Experimental: (§3) This IC50 value was derived from a graph plotting the percentage of dead cells against the drug concentration in the samples. […] A lower IC50 value indicates the higher cytotoxicity of the samples.
(§4) In both cases, the growth media were supplemented with 10% fetal bovine serum (SFB, Euroclone S.p.A., Milan, Italy) and 1% antibiotic solution, containing penicillin at […] and streptomycin at 100 IU/mL (Capricorn Scientific GmbH, Ebsdorfergrund, Germany), maintained at a temperature of 37 °C in a humidified environment with 5% CO2 [130]. Products tested: Albumin nanoparticles obtained through self-assembly and crosslinking with OG were evaluated.
(§5) This method relies on the conversion of MTT, a water-soluble yellow compound, into dark blue, water-insoluble formazan by the mitochondrial dehydrogenases of living cells. […] After treatment, the medium was removed, the cells were washed with phosphate-buffered saline (PBS), and then incubated with 100 μL of fresh medium and 10 μL of MTT (5 mg/mL) for 3 h at 37 °C. The resulting formazan crystals were solubilized with 50 μL of DMSO, and absorbance was measured at 570 nm using the EZ Read 400 reader (Biochrom, Cambridge, UK). The intensity of the resulting color directly correlates with the number of viable cells, and viability was calculated using Equation (6):Cell viability (%) = Esample/Econtrol × 100, where E = extinction(6)

[5] = system: C6 tumor cells; assay: Cytotoxicity, MTT assay; details: for Percentage of dead cells per C6 cell line (cytotoxic effect) / viability at 1.875 µg/mL / viability at 3.75 µg/mL / viability at 7.5 µg/mL / viability at 15 µg/mL: 48 h; for viability at 1.875 µg/mL / viability at 3.75 µg/mL / viability at 7.5 µg/mL / viability at 15 µg/mL / IC50: Rattus norvegicus; for viability at 1.875 µg/mL: read-out: Cell viability (%) C6, 1.875 μg/mL (nanoparticles or free drug), 48 h; for viability at 3.75 µg/mL: read-out: Cell viability (%) C6, 3.75 μg/mL, 48 h; for viability at 7.5 µg/mL: read-out: Cell viability (%) C6, 7.5 μg/mL, 48 h; for viability at 15 µg/mL: read-out: Cell viability (%) C6, 15 μg/mL, 48 h; for IC50: C6, 48 h
Experimental: as §3, §4, §5

[6] = system: normal V79-4 cells; assay: Cytotoxicity, MTT assay; details: for Percentage of dead cells per V79-4 cell line (cytotoxic effect): 48 h; for IC50: Cricetulus griseus, V79-4, 48 h
Experimental: as §3, §4, §5

[7] = set-up: method as in PMID 32494134, PMID 35684445, PMID 25751368; details: rapidly hydrolyzed in physiological conditions; cited from earlier work
[8] = pH stability of free and encapsulated curcumin; type: physicochemical; set-up: degradation rate constant k: unit: h⁻¹; details: dark; for half-life at 4 μg/mL: read-out: degradation half-life t1/2 (converted)
Experimental: The samples were maintained at 37 °C in the dark, in closed containers, for 8 h. […] The particles were maintained at 37 °C in an oven (AG-System, F.lli Galli G. & P., Milano, Italia) protected from light and air exposure. […] The amount of curcumin found in the samples was then determined using a Nanodrop spectrophotometer. […] The half-life (t1/2) for first-order reactions depends solely on the degradation rate constant, k, and is independent of the substance’s initial concentration. All measurements were conducted in triplicate, and the results are reported as average values ± standard deviation (STDev).

[9] = Light stability of free and encapsulated curcumin (natural light and air); type: physicochemical
Experimental: The analyzed HSA nanoparticles were weighed and then exposed to air and natural light for 30 days in Petri dishes. […] All determinations were performed in triplicate, and the results are presented as mean values ± standard deviation (STDev).

[10] = Antioxidant activity, DPPH assay; type: biochemical; details: not UV-irradiated; curcumin concentration; 40 min
Experimental: The samples were vortexed for 20 to 30 s, and their absorbance was measured at 517 nm after 40 min using a UV spectrophotometer (BOECO S-22) (BOECO, Hamburg, Germany). Ethanol is used for calibration, and ascorbic acid serves as a standard for antioxidant activity.
The percentage of DPPH inhibition for each sample type was determined, and the IC50 values were calculated based on the concentration (μg/mL) vs. inhibition plots. Ascorbic acid was used as a standard. All measurements were performed in triplicate at room temperature.

[11] = read-out: IC50 μg/mL for TMZ/CURC on the C6 Cell Line
[12] = read-out: IC50 μg/mL for TMZ/CURC on the V79-4 Cell Line

Compound: Cn1nnc2c(C(N)=O)ncn2c1=O [TMZ, temozolomide]
- Apoptotic cells (%) [1]: 33.59%
- Dead cells (%) [1]: 16.45%
- Living cells (%) [1]: 40.08%
- Preapoptotic cells (%) [1]: 9.88%
- Apoptotic cells (%) [2]: 24.86%
- Dead cells (%) [2]: 15.17%
- Living cells (%) [2]: 49.36%
- Preapoptotic cells (%) [2]: 10.61%
- Papp at 18 h, 500 μM ([3]; pH 7.4, PAMPA-BBB, read at 327 nm, read-out: Permeability rate, Pe (TMZ)): 0.76 ×10⁻⁶ cm/s
- BBB permeability category ([3]; PAMPA-BBB, in words): low permeability
- viability at 48 h, 1.875 μg/mL [4]: 75.8%
- viability at 48 h, 3.75 μg/mL [4]: 67%
- viability at 48 h, 7.5 μg/mL [4]: 60.4%
- viability at 48 h, 15 μg/mL [4]: 54.5%
- Percentage of dead cells per C6 cell line (cytotoxic effect) ([5]; 1.875 μg/mL): 37.7% and 34.88%
- Percentage of dead cells per C6 cell line (cytotoxic effect) ([5]; 3.75 μg/mL): 42.5%
- Percentage of dead cells per C6 cell line (cytotoxic effect) ([5]; 7.5 μg/mL): 47.05%
- Percentage of dead cells per C6 cell line (cytotoxic effect) ([5]; 15 μg/mL): 60.95% and 59.18%
- viability at 1.875 µg/mL [5]: 62.3%
- viability at 3.75 µg/mL [5]: 57.5%
- viability at 7.5 µg/mL [5]: 53%
- viability at 15 µg/mL [5]: 39%
- IC50 ([5]; read-out: IC50 μg/mL for TMZ on the C6 Cell Line): 8.75 µg/mL (≈ 45.1 µM)
- IC50 [5, 11]: 8.75 µg/mL (≈ 45.1 µM)
- Percentage of dead cells per V79-4 cell line (cytotoxic effect) ([6]; 1.875 μg/mL): 24.16%
- Percentage of dead cells per V79-4 cell line (cytotoxic effect) ([6]; 3.75 μg/mL): 33.05%
- Percentage of dead cells per V79-4 cell line (cytotoxic effect) ([6]; 7.5 μg/mL): 39.64%
- Percentage of dead cells per V79-4 cell line (cytotoxic effect) ([6]; 15 μg/mL): 45.53%
- IC50 ([6]; read-out: IC50 μg/mL for TMZ on the V79-4 Cell Line): 16.8 µg/mL (≈ 86.7 µM)
- IC50 [6, 12]: 16.8 µg/mL (≈ 86.7 µM)
- half-life [7]: 1.8 h

- Papp at 18 h, 500 μM ([3]; pH 7.4, Permeability rate, Pe (Curcumin), PAMPA-BBB, read at 425 nm): 0.21 ×10⁻⁶ cm/s
- half-life at 4 μg/mL ([8]; buffer solution (pH 3), pH 3, 37 °C): 7.7 h
- half-life at 4 μg/mL ([8]; buffer solution (pH 9), pH 9, 37 °C): 2.3 h
- half-life at 4 μg/mL ([8]; buffer solution, pH 6.8, 37 °C): 6.5 h
- half-life at 4 μg/mL ([8]; buffer solution, pH 7.4, 37 °C): 5.8 h
- Undegraded Curcumin (%) 1 h ([8]; pH 3, 37 °C): 76%
- Undegraded Curcumin (%) 5 h ([8]; pH 3, 37 °C): 55.7%
- Undegraded Curcumin (%) 8 h ([8]; pH 3, 37 °C): 47.6%
- degradation rate constant k ([8]; pH 3, 37 °C): 0.091
- Undegraded Curcumin (%) 1 h ([8]; pH 6.8, 37 °C): 76.4%
- Undegraded Curcumin (%) 5 h ([8]; pH 6.8, 37 °C): 56.8%
- Undegraded Curcumin (%) 8 h ([8]; pH 6.8, 37 °C): 43.7%
- degradation rate constant k ([8]; pH 6.8, 37 °C): 0.107
- Undegraded Curcumin (%) 1 h ([8]; pH 7.4, 37 °C): 77%
- Undegraded Curcumin (%) 5 h ([8]; pH 7.4, 37 °C): 52.7%
- Undegraded Curcumin (%) 8 h ([8]; pH 7.4, 37 °C): 41.1%
- degradation rate constant k ([8]; pH 7.4, 37 °C): 0.119
- Undegraded Curcumin (%) 1 h ([8]; pH 9, 37 °C): 61%
- Undegraded Curcumin (%) 5 h ([8]; pH 9, 37 °C): 21%
- Undegraded Curcumin (%) 8 h ([8]; pH 9, 37 °C): 8.6%
- degradation rate constant k ([8]; pH 9, 37 °C): 0.301
- Percentage of Degradation of curcumin, Day 3 [9]: 6.8%
- Percentage of Degradation of curcumin, Day 10 [9]: 13.5%
- Percentage of Degradation of curcumin, Day 18 [9]: 16.9%
- Percentage of Degradation of curcumin, Day 26 [9]: 26%
- Percentage of Degradation of curcumin, Day 30 [9]: 32.3%
Compound: COc1cc(/C=C/C(=O)CC(=O)/C=C/c2ccc(O)c(OC)c2)ccc1O [Curcumin, curcumin]
- Apoptotic cells (%) [1]: 35.64%
- Dead cells (%) [1]: 14.33%
- Living cells (%) [1]: 37.92%
- Preapoptotic cells (%) [1]: 12.11%
- Apoptotic cells (%) [2]: 27.09%
- Dead cells (%) [2]: 17.93%
- Living cells (%) [2]: 43.47%
- viability at 48 h, 1.875 μg/mL [4]: 75.8%
- viability at 48 h, 3.75 μg/mL [4]: 60.9%
- viability at 48 h, 7.5 μg/mL [4]: 52.7%
- viability at 48 h, 15 μg/mL [4]: 41.6%
- viability at 1.875 µg/mL [5]: 62.3%
- viability at 3.75 µg/mL [5]: 55.8%
- viability at 7.5 µg/mL [5]: 39.2%
- viability at 15 µg/mL [5]: 37.4%
- IC50 [5, 11]: 6.31 µg/mL (≈ 17.1 µM)
- IC50 ([5]; read-out: IC50 for μg/mL for CURC on the C6 Cell Line): 6.31 µg/mL (≈ 17.1 µM)
- Percentage of dead cells per C6 cell line (cytotoxic effect) ([5]; rat, 1.875 μg/mL): 37.66%
- Percentage of dead cells per C6 cell line (cytotoxic effect) ([5]; rat, 3.75 μg/mL): 44.22%
- Percentage of dead cells per C6 cell line (cytotoxic effect) ([5]; rat, 7.5 μg/mL): 60.84%
- Percentage of dead cells per C6 cell line (cytotoxic effect) ([5]; rat, 15 μg/mL): 62.63%
- Percentage of dead cells per V79-4 cell line (cytotoxic effect) ([6]; 1.875 μg/mL): 24.21%
- Percentage of dead cells per V79-4 cell line (cytotoxic effect) ([6]; 3.75 μg/mL): 39.14%
- Percentage of dead cells per V79-4 cell line (cytotoxic effect) ([6]; 7.5 μg/mL): 47.33%
- Percentage of dead cells per V79-4 cell line (cytotoxic effect) ([6]; 15 μg/mL): 58.41%
- IC50 ([6]; read-out: IC 50 μg/mL for CURC on the V79-4 Cell Line): 10.4 µg/mL (≈ 28.1 µM)
- IC50 [6, 12]: 10.4 µg/mL (≈ 28.1 µM)

- IC50 (DPPH) [10]: 4.3 µg/mL (≈ 24.4 µM)
Compound: O=C1O[C@H]([C@@H](O)CO)C(O)=C1O [Ascorbic acid, ascorbic acid]
